Measured values published in ChEMBL document CHEMBL1121555, “Quantitative structure-selectivity relationships. Comparison of the inhibition of Escherichia coli and bovine liver dihydrofolate reductase by 5-(substituted-benzyl)-2,4-diaminopyrimidines” (J Med Chem, 1980).

Assay: Compound was evaluated for the partition coefficients probably at the pH >> 7.2 at the aqueous phase 0.1 N NaOH
Details: 0.1 N NaOH (aqueous phase)

`Nc1ncc(Cc2ccccc2)c(N)n1` showed a logD of 1.58.

Assay: Compound was evaluated for the partition coefficients probably at the […] at the aqueous phase 0.1 N HCl
Format: physicochemical
Details: 0.1 N HCl (aqueous phase)

First: Nc1ncc(Cc2ccc([N+](=O)[O-])cc2)c(N)n1
Second: CC(=O)Nc1ccc(Cc2cnc(N)nc2N)cc1
The logD of the first is higher: -1.03 for the first, -1.94 for the second.

First: Nc1ncc(Cc2cccc(F)c2)c(N)n1
Second: Nc1ncc(Cc2cccc(Cl)c2)c(N)n1
The logD of the first is lower: -0.8 for the first, -0.36 for the second.

First: COc1cccc(Cc2cnc(N)nc2N)c1
Second: Cc1cccc(Cc2cnc(N)nc2N)c1
The logD of the first is lower: -0.92 for the first, -0.51 for the second.

First: Nc1ncc(Cc2ccccc2)c(N)n1
Second: Nc1ncc(Cc2cccc(OCc3ccccc3)c2)c(N)n1
The logD of the first is lower: -1.03 for the first, 0.53 for the second.
